Reference: ChEMBL document CHEMBL1201862, “PubChem BioAssay data set” (2004)
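96-well plates; 48 h exposure; 5 concentrations. Endpoints by linear interpolation between flanking doses. Not reached: highest tested concentration assigned. GI50: concentration for 50% inhibition of growth.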 Activity calls are given as the source filed them. Rule as the data show it: active = GI50 up to about 1.1 µM and inactive = higher.

Legend:
Assay in all cases: inhibition of tumour cell growth, NCI panel, 48 h
[1] = test system: DLD-1
[2] = test system: DMS-114
[3] = test system: DMS-273
[4] = test system: HOP-18
[5] = test system: KM-20L2
[6] = test system: LXFL 529
[7] = test system: SNB-78
[8] = test system: RXF 631
[9] = test system: XF498

## CSCSCC(CO)NC(=O)/C=C/c1c(C)nc(O)nc1O (stereo not given)
[1]
  GI50: > 100 µM (inactive)
[2]
  GI50: 64.9 µM (inactive)
[3]
  GI50: > 100 µM (inactive)
[4]
  GI50: > 100 µM (inactive)
[5]
  GI50: 46.8 µM (inactive)
[6]
  GI50: > 100 µM (inactive)
[7]
  GI50: > 100 µM (inactive)

## O=C1C(CO)=C(CO)C(=O)c2c(O)ccc(O)c21
[1]
  GI50: 0.0653 µM (active)
[2]
  GI50: 0.24 µM (active)
[3]
  GI50: 0.369 µM (active)
[5]
  GI50: 0.498 µM (active)
[6]
  GI50: 0.177 µM (active)
[8]
  GI50: 1.26 µM (inactive)
[7]
  GI50: 1.7 µM (inactive)
[9]
  GI50: 0.247 µM (active)

## Cc1ccc(C)c(N2C(=O)C(=O)C(c3nc4ccccc4o3)/C(=N/N)C2=O)c1 (stereo not given)
[1]
  GI50: > 100 µM (inactive)
[2]
  GI50: > 100 µM (inactive)
[3]
  GI50: > 100 µM (inactive)
[4]
  GI50: > 100 µM (inactive)
[5]
  GI50: > 100 µM (inactive)
[6]
  GI50: > 100 µM (inactive)
[7]
  GI50: > 100 µM (inactive)
[9]
  GI50: 47.6 µM (inactive)

## C/C=C(/I)CBr
[1]
  GI50: 15.4 µM (inactive)
[2]
  GI50: 12.6 µM (inactive)
[5]
  GI50: 29.5 µM (inactive)
[6]
  GI50: 13.7 µM (inactive)
[8]
  GI50: 15.3 µM (inactive)
[7]
  GI50: 29 µM (inactive)
[9]
  GI50: 13.5 µM (inactive)

## COC(=O)C(CCCC1(c2ccccc2)OCCO1)C(C)=O (stereo not given)
[1]
  GI50: > 100 µM (inactive)
[3]
  GI50: > 100 µM (inactive)
[4]
  GI50: > 100 µM (inactive)
[5]
  GI50: > 100 µM (inactive)
[6]
  GI50: > 100 µM (inactive)
[8]
  GI50: > 100 µM (inactive)
[7]
  GI50: > 100 µM (inactive)
[9]
  GI50: > 100 µM (inactive)

## COc1ccc(C(=O)C(c2ccc(OC)cc2)C2(O)C(=O)Nc3c(Cl)cc(Cl)cc32)cc1 (stereo not given)
[1]
  GI50: 19.2 µM (inactive)
[2]
  GI50: 18.4 µM (inactive)
[3]
  GI50: 16.3 µM (inactive)
[4]
  GI50: 20.1 µM (inactive)
[5]
  GI50: 21.1 µM (inactive)
[6]
  GI50: 15 µM (inactive)
[7]
  GI50: 18.3 µM (inactive)
[9]
  GI50: 22.4 µM (inactive)

## O=C(c1ccc(Cl)cc1)c1ccc(OCC(=O)N2CCN(c3ccccc3)CC2)cc1
[1]
  GI50: > 100 µM (inactive)
[2]
  GI50: 33.2 µM (inactive)
[4]
  GI50: > 100 µM (inactive)
[5]
  GI50: > 100 µM (inactive)
[6]
  GI50: 52.7 µM (inactive)
[7]
  GI50: 56.4 µM (inactive)
[9]
  GI50: > 100 µM (inactive)

## CC1=NN=C(NCCN(C)C)C/C1=C/c1ccccc1Cl
[1]
  GI50: > 100 µM (inactive)
[2]
  GI50: > 100 µM (inactive)
[3]
  GI50: > 100 µM (inactive)
[4]
  GI50: 61.7 µM (inactive)
[5]
  GI50: 58.3 µM (inactive)
[6]
  GI50: > 100 µM (inactive)
[8]
  GI50: 67.5 µM (inactive)
[7]
  GI50: > 100 µM (inactive)
[9]
  GI50: 77.3 µM (inactive)

## CCOC(=O)c1ncn2c1[nH]c(=O)c1ccccc12
[2]
  GI50: > 100 µM (inactive)
[3]
  GI50: > 100 µM (inactive)
[5]
  GI50: > 100 µM (inactive)
[6]
  GI50: > 100 µM (inactive)
[7]
  GI50: > 100 µM (inactive)
[9]
  GI50: > 100 µM (inactive)

## OC(c1ccccn1)C1CNc2ccccc21 (stereo not given)
[1]
  GI50: > 100 µM (inactive)
[2]
  GI50: > 100 µM (inactive)
[3]
  GI50: > 100 µM (inactive)
[5]
  GI50: > 100 µM (inactive)
[6]
  GI50: > 100 µM (inactive)
[7]
  GI50: > 100 µM (inactive)
[9]
  GI50: > 100 µM (inactive)

## CC(Oc1cc2oc(=O)cc(-c3ccccc3)c2cc1Cl)C(=O)O (stereo not given)
[1]
  GI50: > 100 µM (inactive)
[2]
  GI50: > 100 µM (inactive)
[4]
  GI50: > 100 µM (inactive)
[5]
  GI50: > 100 µM (inactive)
[6]
  GI50: > 100 µM (inactive)
[8]
  GI50: > 100 µM (inactive)
[7]
  GI50: > 100 µM (inactive)
[9]
  GI50: 33.5 µM (inactive)

## COc1cc2[nH]c3c(c2cc1OC)CCN[C@@]31CC[C@@]2(CC3c4c(cc(OC)c(O)c42)CCN3C)C[C@@H]1OC (stereo not given in full)
[1]
  GI50: 53 µM (inactive)
[2]
  GI50: 20.2 µM (inactive)
[3]
  GI50: 41.2 µM (inactive)
[4]
  GI50: > 38.7 µM (inactive)
[5]
  GI50: 34 µM (inactive)
[6]
  GI50: 40.1 µM (inactive)
[8]
  GI50: 7.78 µM (inactive)
[7]
  GI50: > 85.3 µM (inactive)
[9]
  GI50: 17.1 µM (inactive)

## O=C1C=C(c2c(O)ccc3ccccc23)c2cc(O)ccc2C1=O
[1]
  GI50: 16.9 µM (inactive)
[2]
  GI50: 6.14 µM (inactive)
[3]
  GI50: 15.3 µM (inactive)
[4]
  GI50: 26.1 µM (inactive)
[5]
  GI50: 20 µM (inactive)
[6]
  GI50: 6.4 µM (inactive)
[7]
  GI50: 19.2 µM (inactive)
[9]
  GI50: 11.1 µM (inactive)
